In brackets after ≈: the same amount, converted by molar mass. Several values for one entry are separate records, joined by “and”; a condition that tells them apart may be missing. Equal values may be shown once. Read-outs that look alike come from different tables or passages of the source. Values belong to the compound of their own block, whether it stands above or below them.
Tests used:
[1] = pKa (base) – pKa (acid)
[2] = cited from earlier work
[3] = cited from earlier work; remark: listed apart in the source
[4] = cited from earlier work; remark: listed apart in the source
[5] = Solubility experiments in sodium phosphate buffer pH 6.5, 37 °C (HPLC); settings: for dissolved MEL / dissolved PRM: highest dissolved concentration, sodium phosphate buffer pH 6.5, 37 °C
Procedure: Solubility experiments were conducted in sodium phosphate buffer solutions at pH 6.5 and 37 °C to simulate intestinal physiological conditions. For each experiment, an excess crystalline solid was sieved through a 300 μm sieve and introduced into a flask with a screw top containing 100 mL of the medium. The solution was stirred at 200 rpm using a magnetic stir bar for 48 h to reach the equilibrium state. […] After each sampling, the volume of the liquid removed from the suspension was not compensated. The withdrawn suspension was filtered through 0.2 μm nylon filters and diluted prior to high-performance liquid chromatography (HPLC) analysis. The solubility experiment for each crystal form was repeated in triplicate. After the last sample collection, the remaining solid material in the suspension was filtered, dried, and characterized by IR and PXRD.
A C18 HPLC column (YMC-Pack ODS-A column, 4.6 mm × 250 mm, 5 μm) with a flow rate of 1 mL min^–1 was employed, and the column temperature was set at 25 °C. The binary mobile phase consisted of acetonitrile and sodium phosphate buffer (pH 6.5) in a volume ratio of 25:75. The samples were diluted appropriately with the mobile phase, and the absorbance was measured at 347 nm.

[6] = cited from earlier work; remark: listed apart in the source

ΔpKa for MEL ([1]; hydroxyl group of MEL): 8.61
ΔpKa for PRM ([1]; hydroxyl group of PRM): 7.84
Structure (SMILES): CN(C)c1ccncc1 [4DMP, 4-dimethylaminopyridine]

Structure (SMILES): CN1C(C(=O)Nc2ccccn2)=C(O)c2sc(Cl)cc2S1(=O)=O.CNC(=O)NC [LRM 1,3-dimethyl urea]
bioavailability vs parent API (fold) [2]: 2.5 x
IDR vs parent API (fold) ([3]; pH 1.2): 28 x
IDR vs parent API (fold) ([3]; pH 7.4): 19 x

Structure (SMILES): CN1C(C(=O)Nc2ccccn2)=C(O)c2sc(Cl)cc2S1(=O)=O.O=C(O)c1ccc(O)cc1 [LRM 4-hydroxy benzoic acid]
solubility vs parent API (fold) ([4]; in H2O): improved solubility in H2O (x 1.6–6.9)

Structure (SMILES): CN1C(C(=O)Nc2ccccn2)=C(O)c2sc(Cl)cc2S1(=O)=O.Cl [LRM HCl]
dissolution vs parent API (fold) ([3]; pH 7): improved dissolution at pH 7 (x 1.3–1.6)

Structure (SMILES): CN1C(C(=O)Nc2ccccn2)=C(O)c2sc(Cl)cc2S1(=O)=O.N [LRM NH3]
dissolution vs parent API (fold) ([3]; pH 7): improved dissolution at pH 7 (x 1.3–1.6)

Structure (SMILES): CN1C(C(=O)Nc2ccccn2)=C(O)c2sc(Cl)cc2S1(=O)=O.O=C(O)c1ccccc1 [LRM benzoic acid]
solubility vs parent API ([4]; in H2O): no solubility advantage in H2O

Structure (SMILES): CN1C(C(=O)Nc2ccccn2)=C(O)c2sc(Cl)cc2S1(=O)=O.O=C(O)CCCC(=O)O [LRM glutaric acid]
solubility vs parent API ([4]; in H2O): no solubility advantage in H2O

Structure (SMILES): CN1C(C(=O)Nc2ccccn2)=C(O)c2sc(Cl)cc2S1(=O)=O.CS(=O)(=O)O [LRM methanesulfonic acid]
dissolution vs parent API (fold) ([3]; pH 7): improved dissolution at pH 7 (x 1.3–1.6)

Structure (SMILES): CN1C(C(=O)Nc2ccccn2)=C(O)c2sc(Cl)cc2S1(=O)=O.O=C(O)c1ccccc1O [LRM salicylic acid]
solubility vs parent API ([4]; in H2O): no solubility advantage in H2O

Structure (SMILES): Cc1cnc(NC(=O)C2=C(O)c3ccccc3S(=O)(=O)N2C)s1.O=C(O)c1ccc(O)cc1 [MEL 4-hydroxybenzoic acid]
bioavailability vs parent API (fold) [2]: 1.1–1.6 x
solubility vs parent API ([4]; pH 6.5): higher solubility

Structure (SMILES): CC(=O)Oc1ccccc1C(=O)O.Cc1cnc(NC(=O)C2=C(O)c3ccccc3S(=O)(=O)N2C)s1 [MEL Aspirin]
bioavailability vs parent API (fold) [2]: 4.4 x
solubility vs parent API (fold) ([4]; pH 7.4): 44 x

Structure (SMILES): Cc1cnc(NC(=O)C2=C([O-])c3ccccc3S(=O)(=O)N2C)s1.O.[K+] [MEL KOH H2O]
bioavailability vs parent API ([2]; in vivo): no bioavailability advantage
dissolution behavior vs parent API ([3]; pH 5.6): improved dissolution behavior

Structure (SMILES): Cc1cnc(NC(=O)C2=C(O)c3ccccc3S(=O)(=O)N2C)s1.N=C(N)NCCCC(N)C(=O)O [MEL arginine]
dissolution behavior vs parent API ([3]; pH 7.5): improved dissolution behavior

Structure (SMILES): Cc1cnc(NC(=O)C2=C(O)c3ccccc3S(=O)(=O)N2C)s1.NC(CS)C(=O)O [MEL cysteine]
dissolution behavior vs parent API ([3]; pH 7.5): improved dissolution behavior at pH 7.5

Structure (SMILES): Cc1cnc(NC(=O)C2=C(O)c3ccccc3S(=O)(=O)N2C)s1.O=C(O)/C=C/C(=O)O [MEL fumaric acid]
bioavailability vs parent API [2]: no bioavailability advantage

Structure (SMILES): Cc1cnc(NC(=O)C2=C(O)c3ccccc3S(=O)(=O)N2C)s1.NCC(=O)O [MEL glycine]
dissolution behavior vs parent API ([3]; pH 7.5): improved dissolution behavior at pH 7.5

Structure (SMILES): Cc1cnc(NC(=O)C2=C(O)c3ccccc3S(=O)(=O)N2C)s1.O=C(O)CO [MEL glycolic acid]
bioavailability vs parent API [2]: no bioavailability advantage

Structure (SMILES): Cc1cnc(NC(=O)C2=C(O)c3ccccc3S(=O)(=O)N2C)s1.O=C(O)CCc1ccccc1 [MEL hydrocinnamic acid]
bioavailability vs parent API [2]: no bioavailability advantage

Structure (SMILES): Cc1cnc(NC(=O)C2=C(O)c3ccccc3S(=O)(=O)N2C)s1.Nc1ccncc1 [MEL-4AP]
dissolved MEL [5]: 0.68 ± 0.05 mg mL^–1
dissolved MEL, times higher than that of the pure MEL ([5]; pH 6.5, 37 °C): 8.1 times
time for which the supersaturation state is maintained ([5]; pH 6.5, 37 °C): > 300 min
apparent solubility compared with the pure API ([5]; pH 6.5, this work): higher solubility at pH 6.5

Structure (SMILES): CN(C)c1ccncc1.Cc1cnc(NC(=O)C2=C(O)c3ccccc3S(=O)(=O)N2C)s1 [MEL-4DMP]
dissolved MEL [5]: 0.85 ± 0.02 mg mL^–1
time for which the supersaturation state is maintained ([5]; pH 6.5): more than 200 min
dissolved MEL, times higher than that of the pure MEL ([5]; pH 6.5, 37 °C): 10.2 times

Structure (SMILES): CN1C(C(=O)Nc2ccccn2)=C(O)c2ccccc2S1(=O)=O.OCCNCCO [PRM diethanolamine]
bioavailability vs parent API [2]: higher bioavailability

Structure (SMILES): CN1C(C(=O)Nc2ccccn2)=C(O)c2ccccc2S1(=O)=O.NCCO [PRM ethanolamine]
bioavailability vs parent API [2]: higher bioavailability

Structure (SMILES): CN1C(C(=O)Nc2ccccn2)=C(O)c2ccccc2S1(=O)=O.Cc1nc(-c2ccc(OCC(C)C)c(C#N)c2)sc1C(=O)O [PRM febuxostat]
dissolution vs parent API (fold) ([3]; pH 6.8): 2.8 x

Structure (SMILES): CN1C(C(=O)Nc2ccccn2)=C(O)c2ccccc2S1(=O)=O.COc1cc(/C=C/C(=O)O)ccc1O [PRM ferulic acid]
IDR vs parent API (fold) ([3]; pH 2): 1.7 x

Structure (SMILES): CN1C(C(=O)Nc2ccccn2)=C(O)c2ccccc2S1(=O)=O.NS(=O)(=O)c1cc(C(=O)O)c(NCc2ccco2)cc1Cl [PRM furosemide]
stability under accelerated aging [6]: good stability under accelerated aging
thermal stability [6]: good thermal stability

Structure (SMILES): CN1C(C(=O)Nc2ccccn2)=C(O)c2ccccc2S1(=O)=O.COC(=O)c1ccc(O)cc1 [PRM methylparaben]
IDR vs parent API ([3]; pH 1.2): no solubility and IDR advantages
dissolution rates in the sink condition ([3]; pH 1.2): superior dissolution rates

Structure (SMILES): CN1C(C(=O)Nc2ccccn2)=C(O)c2ccccc2S1(=O)=O.OCCN(CCO)CCO [PRM triethanolamine]
bioavailability vs parent API [2]: higher bioavailability

Structure (SMILES): CN1C(C(=O)Nc2ccccn2)=C(O)c2ccccc2S1(=O)=O.NC(N)=O [PRM urea]
solubility vs parent API [4]: no solubility advantage

Structure (SMILES): CN1C(C(=O)Nc2ccccn2)=C(O)c2ccccc2S1(=O)=O.COc1cc(C=O)ccc1O [PRM vanillin]
solubility vs parent API ([4]; pH 1.2): no solubility and IDR advantages
IDR vs parent API ([3]; pH 1.2): no solubility and IDR advantages
dissolution rates in the sink condition ([3]; pH 1.2): superior dissolution rates

Structure (SMILES): CN1C(C(=O)Nc2ccccn2)=C(O)c2ccccc2S1(=O)=O [PRM, Piroxicam]
dissolved PRM [5]: 0.39 mg mL^–1 and 0.39 ± 0.01 mg mL^–1
time to highest solubility / maximum dissolved concentration / equilibrium ([5]; pH 6.5): 60 min
solubility thermodynamic at 48 h ([5]; pH 6.5, aqueous buffer): 140 µg/mL (≈ 423 µM)

Structure (SMILES): CN1C(C(=O)Nc2ccccn2)=C(O)c2ccccc2S1(=O)=O.Nc1ccncc1 [PRM-4AP]
dissolved PRM [5]: 1.08 mg mL^–1 and 1.08 ± 0.02 mg mL^–1
dissolved PRM, times higher than that of the anhydrous PRM ([5]; pH 6.5, 37 °C): 2.8 times
apparent solubility compared with the pure API ([5]; pH 6.5, this work): higher solubility

Structure (SMILES): CN(C)c1ccncc1.CN1C(C(=O)Nc2ccccn2)=C(O)c2ccccc2S1(=O)=O [PRM-4DMP]
dissolved PRM [5]: 1.07 mg mL^–1 and 1.07 ± 0.01 mg mL^–1
apparent solubility compared with the pure API ([5]; pH 6.5): higher solubility
dissolved PRM, times higher than that of the anhydrous PRM ([5]; pH 6.5, 37 °C): 2.8 times

Structure (SMILES): C1CNCCN1.CN1C(C(=O)Nc2ccccn2)=C(O)c2ccccc2S1(=O)=O.CN1C(C(=O)Nc2ccccn2)=C(O)c2ccccc2S1(=O)=O [PRM-PPZ]
dissolved PRM [5]: 0.43 mg mL^–1 and 0.43 ± 0.04 mg mL^–1
apparent solubility compared with the pure API ([5]; pH 6.5): higher solubility
dissolved PRM, times higher than that of the anhydrous PRM ([5]; pH 6.5, 37 °C): 1.1 times

Structure (SMILES): CN1C(C(=O)Nc2ccccn2)=C(O)c2sccc2S1(=O)=O.Cl [TNM HCl]
solubility vs parent API ([4]; pH 7): no solubility and IDR advantages at pH 7
IDR vs parent API ([3]; pH 7): no solubility and IDR advantages at pH 7

Structure (SMILES): CN1C(C(=O)Nc2ccccn2)=C(O)c2sccc2S1(=O)=O.O=C(O)c1ccccc1 [TNM benzoic acid]
solubility vs parent API ([4]; pH 7): no solubility advantage
IDR vs parent API (fold) ([3]; pH 7): 2 x

Structure (SMILES): CN1C(C(=O)Nc2ccccn2)=C(O)c2sccc2S1(=O)=O.O=C(O)CO [TNM glycolic acid]
IDR vs parent API ([3]; pH 4.5): no IDR advantage at pH 4.5 and 6.8
IDR vs parent API ([3]; pH 6.8): no IDR advantage at pH 4.5 and 6.8

Structure (SMILES): CN1C(C(=O)Nc2ccccn2)=C(O)c2sccc2S1(=O)=O.CS(=O)(=O)O [TNM methanesulfonic acid]
solubility vs parent API ([4]; pH 7): no solubility and IDR advantages at pH 7
IDR vs parent API ([3]; pH 7): no solubility and IDR advantages at pH 7

Structure (SMILES): C1CNCCN1.CN1C(C(=O)Nc2ccccn2)=C(O)c2sccc2S1(=O)=O [TNM piperazine]
solubility vs parent API (fold) ([4]; pH 7): 5.5 x
IDR vs parent API (fold) ([3]; pH 7): 2.5 x

Structure (SMILES): CN1C(C(=O)Nc2ccccn2)=C(O)c2sccc2S1(=O)=O.Oc1cccc(O)c1O [TNM pyrogallol]
solubility vs parent API (fold) ([4]; pH 7): 5.8–10.1 x
IDR vs parent API (fold) ([3]; pH 7): 2.4–4.2 x

Structure (SMILES): CN1C(C(=O)Nc2ccccn2)=C(O)c2sccc2S1(=O)=O.O=C1NS(=O)(=O)c2ccccc21 [TNM saccharin]
IDR vs parent API ([3]; pH 4.5): no IDR advantage at pH 4.5 and 6.8
IDR vs parent API ([3]; pH 6.8): no IDR advantage at pH 4.5 and 6.8

Structure (SMILES): CN1C(C(=O)Nc2ccccn2)=C(O)c2sccc2S1(=O)=O.O=C(O)c1ccccc1O [TNM salicylic acid]
solubility vs parent API ([4]; pH 7): no solubility and IDR advantages at pH 7
IDR vs parent API ([3]; pH 4.5): no IDR advantage at pH 4.5 and 6.8
IDR vs parent API ([3]; pH 6.8): no IDR advantage at pH 4.5 and 6.8
IDR vs parent API ([3]; pH 7): no solubility and IDR advantages at pH 7

Structure (SMILES): CN1C(C(=O)Nc2ccccn2)=C(O)c2sccc2S1(=O)=O.O=C(O)CCC(=O)O [TNM succinic acid]
IDR vs parent API ([3]; pH 4.5): no IDR advantage at pH 4.5 and 6.8
IDR vs parent API ([3]; pH 6.8): no IDR advantage at pH 4.5 and 6.8
